From patent US20210186943A1, “OTIC FORMULATIONS FOR DRUG-INDUCED OTOTOXICITY” (OTONOMY, INC., priority 2018, published 2021)
Where two headings read alike, the source gives them in different places.

Legend:
outer hair cells (OHCs) = assay: Protection of outer hair cells from cisplatin-induced degeneration in cochlear explant model (Example B10); assay type: cell-based; settings: 1.5 hour pretreatment followed by co-treatment with 10 μM cisplatin
Procedure: (§1) Protective effects of various otoprotectant molecules on cisplatin-induced degeneration of hair cells and spiral ganglion neurons were measured. FIGS. 19 and 20 show the quantified percent protection (normalized to naïve) graphs for outer hair cells (OHCs) and spiral ganglion neurons (SGNs).

[1] = system: spiral ganglion neurons (SGNs); assay: Protection of spiral ganglion neurons from cisplatin-induced degeneration in cochlear explant model (Example B10); assay type: cell-based; settings: 1.5 hour pretreatment followed by co-treatment with 10 μM cisplatin
Procedure: as §1

cochlear hair cells [2] = assay: Effect of solvents on cisplatin-induced hair cell toxicity in cochlear explants; assay type: cell-based, Sprague Dawley rat; settings: for Affect Cisplatin Toxicity: cisplatin exposed explants; for effect on cisplatin-induced hair cell toxicity: summary of Table M
Procedure: (§2) P2-P4 Sprague Dawley rat pups were used for all experiments.
(§3) Day 0: Dissected whole cochleae were mounted onto Cell-Tak-coated mesh inserts and incubated overnight in growth medium.
(§4) Day 3-4: Cochlea were fixed in 4% PFA overnight then immunohistochemically processed with the following: anti-MyoVIIa (1:500), anti-Neurofilament (1:500), Phalloidin (1:250), and DAPI (1:1000).
(§5) Z-stacks of the entire cochlea were imaged at 20x and stitched together using Zeiss Zen Black software. […] Healthy HCs and SGN fibers were counted within each box using Zeiss Zen Blue software. Error bars represent ±s.e.m. unless otherwise indicated.

cochlear hair cells [3] = system: cochlear hair cells
Procedure: as §2, §3, §4, §5

dissociated strial cells = assay: Caspase-Glo 3/7 caspase activation in dissociated strial cultures (Example B7); assay type: cell-based, Sprague Dawley rat; settings: 0.5% DMSO vs 0% DMSO
Procedure: Post cochlear dissection, Reissner's membrane and the lateral wall were gently separated from the basilar membrane with fine forceps. The stria vascularis was then pulled off the lateral wall and collected separately. Cells were then dissociated using a pipette post-trypsinization and seeded onto Poly-d-lysine-coated 96-well plates. Cells were grown for 48-72 hours to achieve 80-90% confluency before treatment. […] Following treatment, cells were exposed to the Caspase-Glo 3/7 (Promega) reagent for 30 minutes then […] was read on a plate reader.
The dissociated strial cells were mostly comprised of marginal cells by 24 hours in vitro.

guinea pigs = assay: Acute cisplatin-induced hearing loss (CIHL) model, ABR threshold shift; assay type: in vivo, guinea pig; settings: single IT SP-600125 (20 mg/ml) in P407 24 hours prior to cisplatin IP 12 mg/kg; 7 days post-treatment; 4, 8, 16 kHz; vs IT P407 vehicle
Procedure: SP-600125 (20 mg/ml) in P407: 205.4 g of DI water were weighed. 1.1342 g of sodium chloride (Fisher Scientific) and 1.53 g of tromethamine (Fisher Scientific) were added. Solid materials were dissolved and the pH of the solution was adjusted to 7.8 with approximately 1.9 mL of 5 N HCl. 126.2 g of buffer was weighed and chilled down and 24.5 g of Poloxamer 407 (Lutrol F127, BASF) were added (e.g., sprinkled) while mixing to dissolve. The approximately 16% poloxamer solution was sterile filtered with a 0.22 μm PVDF 33 mm syringe filter. 207 mg of milled SP600125 (LC laboratories) was added, followed by […] of sterile filtered 16% Poloxamer 407 solution. The solution was then transferred to 3 mL autoclaved vials.
Female albino guinea pigs […] (n=6 per group) of approximately 6-8 weeks of age served as subjects for the experiments. […]
Auditory Brainstem Response (ABR) assessment—During the procedure, additional anesthetic was administered if needed to maintain the depth of anesthesia sufficient to insure immobilization and relaxation. ABRs were recorded in an electrically and acoustically shielded chamber, one ear at a time. […] Acoustic calibration was performed with TDT software (SigCal) and thresholds were expressed as dB SPL in conditions identical to that of threshold recordings in animals. […]
ABR thresholds were determined 7 days post-treatment at 3 frequencies (4, 8, and 16 kHz).

[4] = system: spiral ganglion neurons (SGNs); assay: Cisplatin-induced spiral ganglion neuron damage in ex vivo cochlear explants; assay type: cell-based, Sprague Dawley rat; design: SGN fiber density (SGNs per 200 μm): dose or concentration left out as unconfirmed
Text: (§6) Error bars represent ±s.e.m. unless otherwise indicated.

cochlear hair cells [5] = assay: Cisplatin-induced hair cell damage in ex vivo cochlear explants; assay type: cell-based, Sprague Dawley rat; design: dose or concentration left out as unconfirmed; settings: various cisplatin concentrations, 48 or 72 hours
Text: as §6

strial cells = assay: Caspase 3/7 activation in dissociated strial cultures with cisplatin and antioxidants (Example B8); assay type: cell-based, Sprague-Dawley rat; settings: cisplatin alone
Text: Neonatal (P2-P4) Sprague-Dawley rats were used for the experiments described here. Animals were euthanized following anesthesia using isoflurane. Rat cochleae were then dissected in cold HBSS medium enriched with glucose.
Following cochlear dissection, Reissner's membrane and the lateral wall were separated and the stria vascularis was then removed from the lateral wall. Strial cells were then dissociated, seeded onto Poly-d-lysine coated 96 well plates and grown to achieve 80-90% confluency before treatment. […] After incubation, cells were lysed using the Promega caspase 3/7 Glo kit and the intensity of caspase 3/7 were read using Perkin-Elmer Enspire plate reader.
At this stage, cells also began to show formation of vessels (Laminin staining).

Compound: Nc1nc2nc[nH]c2c(=S)[nH]1 [6-thioguanine]
- percent protection (normalized to naïve) of outer hair cells (outer hair cells (OHCs)): almost complete protection
- percent protection (normalized to naïve) of spiral ganglion neurons [1]: complete protection

Compound: CC(C)=O [Acetone]
- Affect Cisplatin Toxicity (cochlear hair cells [2]; solvent concentration 1%): No
- Affect Cisplatin Toxicity (cochlear hair cells [2]; solvent concentration 2%): No
- HC Toxicity (cochlear hair cells [3]; solvent concentration 1%, cochlear explants): No
- HC Toxicity (cochlear hair cells [3]; solvent concentration 2%, cochlear explants): No
- toxicity on naive cochlear explants (cochlear hair cells [3]; summary of Table M, all tested concentrations): no evident toxicity

Compound: CC#N [Acetonitrile]
- Affect Cisplatin Toxicity (cochlear hair cells [2]; solvent concentration 3%): No
- HC Toxicity (cochlear hair cells [3]; solvent concentration 3%, cochlear explants): Slight

Compound: O=C(OCc1ccccc1)c1ccccc1 [Benzyl benzoate]
- Affect Cisplatin Toxicity (cochlear hair cells [2]; solvent concentration 0.5%): No
- Affect Cisplatin Toxicity (cochlear hair cells [2]; solvent concentration 1%): No
- HC Toxicity (cochlear hair cells [3]): No
- toxicity on naive cochlear explants (cochlear hair cells [3]): no evident toxicity

Compound: C[S+](C)[O-] [DMSO, dimethyl sulfoxide]
- Affect Cisplatin Toxicity (cochlear hair cells [2]; solvent concentration 0.1%): Yes-Protection
- Affect Cisplatin Toxicity (cochlear hair cells [2]; solvent concentration 0.5%): Yes-Protection
- Affect Cisplatin Toxicity (cochlear hair cells [2]; solvent concentration 1%): Yes-Protection
- effect on cisplatin-induced hair cell toxicity (cochlear hair cells [2]): reduced cisplatin-induced hair cell toxicity
- effect on cisplatin-induced caspase activation (relative light units) (dissociated strial cells): reduced cisplatin-induced caspase activation
- HC Toxicity (cochlear hair cells [3]): No
- toxicity on naive cochlear explants (cochlear hair cells [3]): no evident toxicity

Compound: CCO [Ethanol]
- Affect Cisplatin Toxicity (cochlear hair cells [2]; solvent concentration 1%): No
- Affect Cisplatin Toxicity (cochlear hair cells [2]; solvent concentration 2%): No
- Affect Cisplatin Toxicity (cochlear hair cells [2]; solvent concentration 2.5%): No
- HC Toxicity (cochlear hair cells [3]): No
- toxicity on naive cochlear explants (cochlear hair cells [3]): no evident toxicity

Compound: CN1CCCC1=O [N-Methyl-2-pyrrolidone]
- HC Toxicity (cochlear hair cells [3]): Yes

Compound: O=C1c2ccccc2-c2n[nH]c3cccc1c23 [SP-600125, anthra[1,9-cd]pyrazol-6(2H)-one]
- ABR threshold shift (guinea pigs): dramatically reduced the ABR threshold shift

Compound: N.N.[Cl][Pt][Cl] [cisplatin]
- difference from base to apex in SGN susceptibility to cisplatin ([4]; base, mid, apex regions): No significant difference
- SGN fiber density (SGNs per 200 μm) ([4]; varying concentrations of cisplatin, 48 or 72 hours): decreases in a dose dependent manner
- IHCs per 200 μm (cochlear hair cells [5]): decreased in a dose- and exposure time-dependent manner
- OHCs per 200 μm (cochlear hair cells [5]): decreased in a dose- and exposure time-dependent manner
- caspase 3/7 activation (RLU) (strial cells): increased caspase 3/7 activation

Compound: PEG400
- Affect Cisplatin Toxicity (cochlear hair cells [2]; solvent concentration 2%): Yes-Protection
- effect on cisplatin-induced hair cell toxicity (cochlear hair cells [2]): reduced cisplatin-induced hair cell toxicity
